Measured values taken from US4824829A, “Non-dusting antibiotic, anticoccidial premix compositions and a process for their manufacture” (American Cyanamid Company, priority 1985, dated 1989).

Key:
[1] = in vivo; conditions: rabbit, topical or ocular
[2] = Relative Dermal Toxicities (LD50 Rabbit Dermal Toxicity); conditions: in vivo, topical or ocular, Female, maduramicin
[3] = Segregation study (drug accumulation in medicated poultry feed after two hours on drum roller); type: physicochemical
Procedure: The segregation test is performed in a commercially-blended poultry feed, supplemented with 1000 ppm (0.1%) of drug, using the premix prepared in Example 1 in one blend and pure drug with an equivalent amount of corncob grits in the other as indicated in Table IV below.
These materials are placed into new one-gallon Nalgene dense polyethylene jars and placed on a drum roller for two hours. At the end of the mixing time, the jars are sampled in the horizontal position to remove the material which has accumulated and packed in the neck (#1), then the jars are emptied without shaking or tapping, and a cross-sectional sample taken from the bulk (#2); finally, the empty jar is extracted and assayed for residual drug (#3).

[4] = emptied jar residue, feed with 1000 ppm drug
[5] = neck of jar, feed with 1000 ppm drug

#2 Bulk sample, Assay ([3]; cross-sectional bulk sample, feed with 1000 ppm drug) [ppm]	#3 Bottle residue, Assay [3, 4] [ppm]	#3 Bottle residue, Total Drug [3, 4] [mg]	#3 Bottle residue, Weight [3, 4] [g]	separation of drug from the feed ([3]; mixed dry with feed)	actual amount of drug segregating, pure drug vs premix (times larger) ([3]; neck accumulation, pure drug relative to premix)	#1 Neck accumulation, Assay [3, 5] [ppm]	#1 Neck accumulation, Total Drug [3, 5] [mg]	#1 Neck accumulation, Weight [3, 5] [g]	SMILES	LD50 [1] [mg/kg]	LD50 [2] [mg/kg]	tendency to accumulate in the spots of least movement ([3]; mixed dry with feed, neck of the bottle, vs premix)
–	–	–	–	–	–	–	–	–	CO[C@@H]1[C@@H](OC)[C@H](C)[C@@](O)(CC(=O)O)O[C@H]1[C@H](C)[C@H]1O[C@@]2(CC[C@@](C)([C@H]3CC[C@@](C)([C@@H]4O[C@@H]([C@H]5O[C@](C)(O)[C@H](C)C[C@@H]5C)C[C@@H]4O[C@@H]4C[C@H](OC)[C@@H](OC)[C@H](C)O4)O3)O2)C[C@H](O)[C@H]1C [Composition 1, maduramicin]	8.9	3.7	–
1115	2300	1.85	0.80	separates freely from the feed	more than seven	1745	14.8	8.5	COC1CC(OC2CC(C3OC(C)(O)C(C)CC3C)OC2C2(C)CCC(C3(C)CCC4(CC(O)C(C)C(C(C)C5OC(O)(CC(=O)O)C(C)C(OC)C5OC)O4)O3)O2)OC(C)C1OC (stereo not drawn) [Pure Drug]	–	–	greater tendency to accumulate in the spots of least movement
